These compounds were tested on Cucumber (breed: Sagamihanjiro) (assay: Relief effects of salt injury on cucumber (Test Example 8)). Details: spray, 0.1% sodium chloride irrigation from 3 days, above ground raw weight at 20 days, ascorbyl palmitate 600 ppm, imidacloprid 50 ppm, pymetrozine 100 ppm, cyenopyrafen 150 ppm, pyraclostrobin 50 ppm, normal irrigation = 100.
Protocol: Cucumber (breed: Sagamihanjiro, 2 replications) hydroponically grown up to the 1.5 leaf stage in a greenhouse was prepared.
A water dispersible granule of 30% ascorbyl palmitate and a commercially available product containing the substance (B) described in Table 14 were diluted with tap water into a concentration described in Table 14, and the diluted solution was sprayed over the nursery plats in a sufficient amount. After air dried, they were cultivated in a greenhouse with normal irrigation. Irrigation was changed to 0.1% aqueous sodium chloride solution at the elapsed time of 3 days after the spraying, and cultivated. The raw weight of an above ground part was measured at the elapsed time of 20 days after the spraying. From this, injury relief percentages were computed by the following formula.
O=[N+]([O-])NC1=NCCN1Cc1ccc(Cl)nc1 [Imidacloprid] was tested, and the “relief percents of injury (%)” value was 33%.
In the case of CC1=NNC(=O)N(/N=C/c2cccnc2)C1 [Pymetrozine], the “relief percents of injury (%)” value is reported as 53%.
COC(=O)N(OC)c1ccccc1COc1ccn(-c2ccc(Cl)cc2)n1 [Pyraclostrobin] was tested, and the “relief percents of injury (%)” value was 77%.
In the case of CCCCCCCCCCCCCCCC(=O)OC[C@H](O)[C@H]1OC(=O)C(O)=C1O [ascorbyl palmitate], the “relief percents of injury (%)” value is reported as 53%.
Cc1nn(C)c(/C(OC(=O)C(C)(C)C)=C(\C#N)c2ccc(C(C)(C)C)cc2)c1C [cyenopyrafen] was tested, and the “relief percents of injury (%)” value was 51%.

The compounds below were run on Tomato (breed: Momotaro) (assay: Relief effects of high temperature injury on tomato (Test Example 3)). Details: spray, 40° C. daylight / 30° C. dark, 4 days, ascorbyl palmitate 600 ppm, thiophanate-methyl 467 ppm, boscalid 333 ppm, cyflufenamid 17 ppm + triflumizole 75 ppm.
Protocol: Tomato (breed: Momotaro, 2 replications) grown up to the 4 leaf stage in a greenhouse was prepared.
A water dispersible granule of 30% ascorbyl palmitate and a commercially available agent containing the substance (B) as described in Table 8 were diluted with tap water into a concentration described in Table 8, and the diluted solution was sprayed over the whole nursery plants in a sufficient amount. After air dried, they were allowed to grow under cycle conditions of 16 hours under a daylight condition at 40° C. and 8 hours under a dark condition at 30° C. The degree of disorders was investigated at an elapsed time of 4 days after the spraying.
The degree of necrosis due to high temperature was evaluated by 11 levels of disorder indices from 0 (no necrosis) to 10 (withering to death). From this, the injury relief percentages were computed by the following formula.
For O=C(Nc1ccccc1-c1ccc(Cl)cc1)c1cccnc1Cl [Boscalid], the “relief percents of injury (%)” value was 40%.
With COC(=O)NC(=S)Nc1ccccc1NC(=S)NC(=O)OC [Thiophanate-methyl] the “relief percents of injury (%)” value was 40%.
In the case of CCCCCCCCCCCCCCCC(=O)OC[C@H](O)[C@H]1OC(=O)C(O)=C1O [ascorbyl palmitate], the “relief percents of injury (%)” value is reported as 40%.
